Values of other authors in US20100179115A1, “USE OF A GLUCOCORTICOID RECEPTOR II ANTAGONIST TO TREAT DEPRESSION IN PATIENTS TAKING IL-2” (Corcept Therapeutics, Inc., priority 2006, published 2010).

Tests used:
[1] = in one study (Kawai)
[2] = tested on: IL-1 induced memory deficits; conditions: Song 2002
severe major depression = conditions: four patients, one completed, no control group; Murphy 1993

CC#C[C@]1(O)CC[C@H]2[C@@H]3CCC4=CC(=O)CCC4=C3[C@@H](c3ccc(N(C)C)cc3)C[C@@]21C [Mifepristone, 17-beta-hydroxy-11-beta-(4-dimethyl-aminophenyl)-17-alpha-(1-propynyl)-estra-4,9-dien-3-one]
fraction of the daily dose excreted in the urine [1]: less than 0.5%
recovery of rats that did not recover from the deleterious effects of IL-1 ([2]; after one or two treatments): complete recovery
effect on learning and memory impairments associated with IL-1 administration ([2]; rats, i.c.v. injection immediately prior to IL-1): significant reduction in learning and memory impairments
effectiveness in treating depression (severe major depression): no clear evidence that RU486 was effective
